Experimental data published in PubChem BioAssay (NCI).
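Protocol summary: plate cells (96-well), add compound at 5 concentrations, incubate 48 h, interpolate endpoints linearly. TGI denotes the concentration required for complete inhibition of growth.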

Columns and labels:
Assay in all cases: DTP human tumour cell line panel, 48 h
CAKI-1 renal = tested on: CAKI-1 renal
PC-3 prostate = tested on: PC-3 prostate
A549 NSCLC = tested on: A549 NSCLC
HS 578T breast = tested on: HS 578T breast
SK-MEL-28 melanoma = tested on: SK-MEL-28 melanoma
NCI-H226 lung = tested on: NCI-H226 lung
HT29 colon = tested on: HT29 colon
COLO 205 colon = tested on: COLO 205 colon
SW-620 colon = tested on: SW-620 colon
MCF7 breast = tested on: MCF7 breast
SF-295 CNS = tested on: SF-295 CNS
HCT-15 colon = tested on: HCT-15 colon
OVCAR-8 ovarian = tested on: OVCAR-8 ovarian
BT-549 breast = tested on: BT-549 breast
M14 melanoma = tested on: M14 melanoma
UACC-62 melanoma = tested on: UACC-62 melanoma
HCT-116 colon = tested on: HCT-116 colon
ACHN renal = tested on: ACHN renal
MDA-N = tested on: MDA-N
UO-31 renal = tested on: UO-31 renal
SN12C renal = tested on: SN12C renal
NCI/ADR-RES ovarian = tested on: NCI/ADR-RES ovarian
HOP-92 NSCLC = tested on: HOP-92 NSCLC
SNB-19 CNS = tested on: SNB-19 CNS
MDA-MB-231 breast = tested on: MDA-MB-231 breast
HL-60(TB) leukemia = tested on: HL-60(TB) leukemia
DU-145 prostate = tested on: DU-145 prostate
OVCAR-5 ovarian = tested on: OVCAR-5 ovarian
RXF 393 renal = tested on: RXF 393 renal
HCC-2998 colon = tested on: HCC-2998 colon
KM12 colon = tested on: KM12 colon
T-47D breast = tested on: T-47D breast
SF-268 CNS = tested on: SF-268 CNS
OVCAR-3 ovarian = tested on: OVCAR-3 ovarian
NCI-H522 lung = tested on: NCI-H522 lung
786-0 renal = tested on: 786-0 renal
TK-10 renal = tested on: TK-10 renal
MALME-3M melanoma = tested on: MALME-3M melanoma
SK-OV-3 ovarian = tested on: SK-OV-3 ovarian
A498 renal = tested on: A498 renal
SK-MEL-5 melanoma = tested on: SK-MEL-5 melanoma
OVCAR-4 ovarian = tested on: OVCAR-4 ovarian
MDA-MB-435 = tested on: MDA-MB-435
MOLT-4 leukemia = tested on: MOLT-4 leukemia
NCI-H460 lung = tested on: NCI-H460 lung
HOP-62 NSCLC = tested on: HOP-62 NSCLC
NCI-H23 lung = tested on: NCI-H23 lung
EKVX NSCLC = tested on: EKVX NSCLC
U251 CNS = tested on: U251 CNS
RPMI-8226 leukemia = tested on: RPMI-8226 leukemia
LOX IMVI melanoma = tested on: LOX IMVI melanoma
IGROV1 ovarian = tested on: IGROV1 ovarian
K-562 leukemia = tested on: K-562 leukemia
SF-539 CNS = tested on: SF-539 CNS
SK-MEL-2 melanoma = tested on: SK-MEL-2 melanoma
SNB-75 CNS = tested on: SNB-75 CNS
SR leukemia = tested on: SR leukemia
UACC-257 melanoma = tested on: UACC-257 melanoma
CCRF-CEM leukemia = tested on: CCRF-CEM leukemia

Measured: TGI

CNC(=O)CCC(NC(C)=O)C(=O)NC(Cc1ccc(NC(=O)CCCCC(C)=O)cc1)C(=O)NC(CCC(=O)NC)C(=O)NC (centres undefined)
not listed: SK-MEL-2 melanoma | SNB-75 CNS | SR leukemia | UACC-257 melanoma | CCRF-CEM leukemia
> 100 µM: all other assays above

COC(=O)[C@H](C)N1C(=O)N[C@@H](C(C)C)C1=O
not listed: HS 578T breast | HL-60(TB) leukemia | SF-268 CNS | A498 renal
> 100 µM: all other assays above
